In patent publication US20100168041A1, “COMBINATION OF MONOSACCHARIDES AND DESQUAMATING AGENTS, AND USE THEREOF” (L'OREAL, priority 2008, published 2010):

What was measured:
[1] = test system: keratinocytes (HaCat line); assay: Proliferation of keratinocytes (Cyquant, Nile red, XTT markers); format: cell-based; details: keratinocytes cultured in medium depleted in growth factors, vs untreated control
Procedure: The keratinocytes (HaCat line) are cultured under two conditions: whole defined culture medium (standard condition) and culture medium deficient in growth factors. This deficient medium gives rise to a controlled delay in cell proliferation. Under these conditions, it is then possible to measure the effects of compounds capable of compensating for the deficiency in growth factors of the culture medium and thus of relaunching the cell multiplication and/or of stimulating cell metabolism.
The keratinocyte proliferation is measured by means of three markers on the same cell population: the level of DNA, which is proportional to the number of cells (Cyquant probe), the level of constituent polar lipids of cell membranes (Nile red probe) and the mitochondrial respiration, which reflects the general cell metabolism (XTT probe).

[2] = test system: type I procollagen; assay: Synthesis of procollagen 1 in reconstructed skin (indirect immunofluorescence); format: cell-based, human; details: for procollagen 1 synthesis: reconstructed skin
Procedure: Conventional detection via indirect immunofluorescence of type I procollagen in the dermis of the reconstructed skin was also performed on other series of frozen sections (anti-procoll 1 antibody (MAB 1912 Millipore)+FTIC-coupled conjugate (112-095-068 Jackson Immunoresearch)). In order to obtain bearings within the cutaneous architecture during the microscopic examination of the sections, the cell nuclei of the keratinocytes and fibroblasts are localized by staining them with propidium iodide, as described above. Three frozen sections are prepared at random on each reconstructed skin and on each section, and two microscopic fields (25× objective lens) are analysed by fluorescence microscopy and photographed. The levels of fluorescence proportional to the amount of type I procollagen are compared between the control skin and the skin treated with rhamnose.

[3] = test system: dermal fibroblasts of the reconstructed skin; assay: Proliferation of fibroblasts in whole reconstructed skin (propidium iodide count); format: cell-based, human; details: 5 mM, within 48 hours of treatment
Description: Rhamnose was studied on a model of whole reconstructed skin in order to measure its anti-ageing efficacy on the dermal compartment.
Briefly, the model of reconstructed skin used is that described by Bell et al. (Bell E. et al., The reconstitution of living skin, J. Invest. Dermatol., 1983, July; 81): it includes a dermal equivalent on which is reconstructed a multistratified epidermis; the dermal equivalent is manufactured from acid-soluble collagen, culture medium containing serum and normal adult human fibroblasts. After 5 days of shrinkage, this equivalent is inoculated with keratinocytes and then cultured for 6 days in immersion and for 7 days in emersion in order to obtain a multistratified and differentiated epidermis having a horny layer.
The reconstructed skin is treated with 5 mM rhamnose for 2 days and 5 days in the culture medium; after the treatment, the reconstructed skins are included in Tissue Tek in order to produce frozen sections 7 μm thick with a cryostat. […] Three frozen sections are prepared at random on each reconstructed skin; on each section, two microscopic fields (25× objective lens) are analysed by fluorescence microscopy and photographed. The dermal fibroblasts are thus counted for each reconstructed skin on six images in total representing the six microscopic fields considered. […]

In the case of C[C@H](O)[C@H](O)[C@@H](O)[C@@H](O)C=O [rhamnose, Rhamnose], the keratinocyte proliferation [1] is reported as “activate keratinocyte proliferation”, the “green fluorescence (proportional to amount of type I procollagen) vs control skin” value ([2]; 1 mM for 120 hours) is reported as “marked increase” and the “synthesis of type I procollagen by the fibroblasts” value ([2]; 1 mM for 120 hours) is reported as “greatly stimulated”. The “procollagen 1 synthesis” value ([2]; 1 mM) was “stimulation of procollagen 1 synthesis”, the “procollagen 1 synthesis” value ([2]; 5 mM) was “stimulation of procollagen 1 synthesis” and the “growth of the dermal fibroblasts” value [3] was “induces stimulation of growth”.
